One test deals with T1, ABL1(DKIN) (Homo sapiens, UniProt P00519).
T1 construct: ABL1(DKIN); fused on or other part: Fused to T7 bacteriophage particles (phage display)
Briefly: Phage-display competition binding assay (Kd), ABL1(DKIN). The text has this:
(§1) The term “ND” represents non-determined values.

A further test has as its target T2, ABL1(E255K) (Homo sapiens, UniProt P00519, E255K).
T2 construct: made in house; host or cells: T7 bacteriophage display
Briefly: Phage-display competition binding assay (Kd), ABL1(E255K).
Source text: as §1

The target in a further test is T3, ABL1(T3151) (Homo sapiens, UniProt P00519, T315I).
T3 construct: made in house; host or cells: T7 bacteriophage display
Briefly: Phage-display competition binding assay (Kd), ABL1(T3151).
Source text: as §1

For a further test, the target named is T4, ABL1(E274K) (Homo sapiens, UniProt P00519, E255K).
T4 construct: made in house; host or cells: T7 bacteriophage display
Kind of test: Phage-display competition binding assay (Kd), ABL1(E274K).
Source text: as §1

For a further test, the target named is T5, ABL1(Y253F) (Homo sapiens, UniProt P00519, Y253F).
T5 construct: made in house; host or cells: T7 bacteriophage display
Briefly: Phage-display competition binding assay (Kd), ABL1(Y253F).
Source text: as §1

Another test concerns the target T6, ABL1(H396P) (Homo sapiens, UniProt P00519, H396P).
T6 construct: made in house; host or cells: T7 bacteriophage display
Briefly: Phage-display competition binding assay (Kd), ABL1(H396P).
Source text: as §1

The next test has as its target T7, ABL1(Q252H) (Homo sapiens, UniProt P00519, Q252H).
T7 construct: made in house; host or cells: T7 bacteriophage display
Briefly: Phage-display competition binding assay (Kd), ABL1(Q252H).
Source text: as §1

SMILES strings stand for the structures.

What is called Kd is the free concentration of one partner at which half of the binding sites on the other are occupied at equilibrium, for simple one-to-one binding. A low value points to tighter binding.

`CC(C)(C)c1cc(NC(=O)Nc2ccc(Cl)c(C(F)(F)F)c2)no1` [Compound A1, 1-(5-tent-butylisoxazol-3-yl)-3-(4-chloro-3-(trifluoromethyl)phenyl)urea] came in with a Kd at ABL1(DKIN) of over 10 µM. Regarding `CC(C)(C)c1cc(NC(=O)Nc2ccc(Br)cc2C(F)(F)F)on1` [Compound A26], the Kd at ABL1(DKIN) is over 10 µM. In turn, `COc1ccc(NC(=O)Nc2cc(C(C)(C)C)no2)cc1` [Compound A30] yielded a Kd on ABL1(DKIN) of over 10 µM. Molecule `CC(C)(C)c1cc(NC(=O)Nc2ccc(Cl)cc2)on1` [Compound A32] displayed a Kd on ABL1(DKIN) of over 10 µM. Still for that read-out and setting: with `CSc1ccc(NC(=O)Nc2cc(C(C)(C)C)no2)cc1` [Compound A39] the figure was over 10 µM.

On to `CC(C)(C)c1cc(NC(=O)Nc2ccc(Br)cc2C(F)(F)F)no1` [Compound A41], for which, on ABL1(DKIN), the Kd was over 10 µM. As for `CC(C)(C)c1cc(NC(=O)Nc2ccc(OCCCc3ccncc3)cc2)no1` [Compound G1, 1-(4-(3-(pyridin-4-yl)propoxy)phenyl)-3-(5-tert-butylisoxazol-3-yl)urea], the Kd at ABL1(E255K) was over 10 µM. `CC(C)(C)c1cc(NC(=O)Nc2ccc(OCCc3ccncc3)cc2)no1` [Compound G22] showed a Kd on ABL1(E255K) of over 10 µM. Turning to `CC(C)(C)c1cc(NC(=O)Nc2ccc(OCCc3ccccn3)cc2)no1` [Compound G27], the Kd on ABL1(T3151) is 1 to 10 µM; on ABL1(E255K) it was over 10 µM. On ABL1(E255K), `CC(C)(C)c1csc(NC(=O)Nc2ccc(OCc3ccccc3)cc2)n1` [Compound G49] had a Kd of over 10 µM. With `Cc1ccc(-n2nc(C(C)(C)C)cc2NC(=O)Nc2ccc(Br)cc2C(F)(F)F)cc1` [Compound H13], the Kd on ABL1(DKIN) was over 10 µM. Consider `Cc1[nH]c(C(=O)Nc2ccc(NC(=O)Nc3cc(C(C)(C)C)on3)cc2)c(C)c1CCC(=O)O` [Compound N39], for which the Kd at ABL1(E255K) is over 10 µM. With `CC(C)(C)c1cc(NC(=O)Nc2ccc(NC(=O)Cc3sc(-c4ccc(Cl)cc4)nc3-c3ccccc3)cc2)no1` [Compound N66], the Kd at ABL1(DKIN) was in the range of 0.1 to 1 µM.

For the molecule `Cc1ccc(C(=O)Nc2ccc(NC(=O)Nc3nc(C(C)(C)C)cs3)cc2)cc1` [Compound N135], the Kd at ABL1(T3151) and on ABL1(E255K) was over 10 µM each time.

In the case of `CC(C)(C)c1cc(NC(=O)Nc2ccc(NC(=O)c3cccc4nc5cc(O)cc(O)c5cc34)cc2)no1` [Compound N139], on ABL1(T3151), the Kd was over 10 µM. As to `CC(C)(C)c1cc(NC(=O)Nc2ccc(NC(=O)c3c4c(nc5ccccc35)CCCC4)cc2)no1` [Compound N140], on ABL1(T3151), the Kd is over 10 µM.

In the case of `CC(C)(C)c1cc(NC(=O)Nc2ccc(NC(=O)c3ccnc4ccccc34)cc2)no1` [Compound N141], at ABL1(E255K), the Kd was over 10 µM. Take `Cc1ccc(C(=O)Nc2ccc(NC(=O)Nc3cc(C(C)(C)C)on3)cc2)cn1` [Compound N142]: the Kd at ABL1(E255K) is over 10 µM.

On ABL1(E255K), `CC(C)(C)c1cc(NC(=O)Nc2ccc(NC(=O)c3ccc4ccccc4n3)cc2)no1` [Compound N143] yielded a Kd of over 10 µM.

Regarding `CC(C)(C)c1cc(NC(=O)Nc2ccc(NC(=O)c3ccc4cccnc4n3)cc2)no1` [Compound N144], the Kd at ABL1(E255K) is over 10 µM. Same read-out and setting: with `Cc1ncccc1C(=O)Nc1ccc(NC(=O)Nc2cc(C(C)(C)C)on2)cc1` [Compound N145] the figure was over 10 µM. `CC(C)(C)c1cc(NC(=O)Nc2ccc(C(=O)Nc3nccnc3N)cc2)no1` [Compound N157] showed a Kd at ABL1(E274K) of over 10 µM. Consider `COc1cc2nc(Cl)nc(Nc3ccc(NC(=O)Nc4cc(C(C)(C)C)on4)cc3)c2cc1OC` [Compound O1, 1-(4-(2-chloro-6,7-dimethoxyquinazolin-4-ylamino)phenyl)-3-(5-tert-butylisoxazol-3-yl)urea], for which the dissociation constant Kd on ABL1(T3151) was 1 to 10 µM; at ABL1(Y253F) it was over 10000 nM; on ABL1(H396P), over 10000 nM; at ABL1(Q252H), 1000 to 10000 nM; on ABL1(E255K), over 10 µM. In the case of `COc1cc2ncnc(Nc3ccc(NC(=O)Nc4cc(C(C)(C)C)on4)cc3)c2cc1OC` [Compound O5], the Kd on ABL1(T3151) was under 0.1 µM; on ABL1(Y253F) it was 100 to 1000 nM; on ABL1(H396P), 100 to 1000 nM; at ABL1(Q252H), 100 to 1000 nM; at ABL1(DKIN) it was under 0.1 µM; on ABL1(E255K), 0.1 to 1 µM.

Consider `COC(=O)c1cccc(Sc2ncc(NC(=O)Nc3cc(C(C)(C)C)on3)s2)c1` [Compound O8], for which the Kd at ABL1(T3151) lay in the range of 0.1 to 1 µM.
